Laboratory results as given in patent publication US20220347196A1, “COMPOSITIONS AND METHODS FOR IMPROVING GASTROINTESTINAL FUNCTION IN SUBJECTS WITH RENAL DISEASE” (priority 2021, published 2022).

Tests used:
[1] = tested on: Patients With ESRD On Hemodialysis With Constipation; test: Nutrition, hemoglobin and inflammatory biomarkers measured each month during 12 week HMO treatment; type: in vivo, human
Procedure: Five subjects with ESRD on hemodialysis with constipation were treated with 2′-FL (3.3 grams/day) for 12 weeks. Meanwhile, nutrition, hemoglobin, and inflammatory biomarkers were measured in each of the these patients at each month during the treatment.

[2] = tested on: subjects with ESRD on hemodialysis with constipation; test: Bowel movement consistency and regularity after 12 week 2′-FL treatment; type: in vivo, human; conditions: five subjects, 3.3 grams/day for 12 weeks
Procedure: Five subjects with ESRD on hemodialysis with constipation were treated with 2′-FL (3.3 grams/day) for 12 weeks.

[3] = Patient 1, month of treatment 0 (baseline), 3.3 grams/day
[4] = Patient 1, month of treatment 1, 3.3 grams/day
[5] = Patient 1, month of treatment 2, 3.3 grams/day
[6] = Patient 1, month of treatment 3, 3.3 grams/day
[7] = Patient 2, month of treatment 0 (baseline), 3.3 grams/day
[8] = Patient 2, month of treatment 1, 3.3 grams/day
[9] = Patient 2, month of treatment 2, 3.3 grams/day
[10] = Patient 2, month of treatment 3, 3.3 grams/day
[11] = Patient 3, month of treatment 0 (baseline), 3.3 grams/day
[12] = Patient 3, month of treatment 1, 3.3 grams/day
[13] = Patient 3, month of treatment 2, 3.3 grams/day
[14] = Patient 3, month of treatment 3, 3.3 grams/day
[15] = Patient 4, month of tx 0 (baseline), 3.3 grams/day
[16] = Patient 4, month of tx 1, 3.3 grams/day
[17] = Patient 4, month of tx 2, 3.3 grams/day
[18] = Patient 4, month of tx 3, 3.3 grams/day
[19] = Patient 5, month of treatment 0 (baseline), 3.3 grams/day
[20] = Patient 5, month of treatment 1, 3.3 grams/day
[21] = Patient 5, month of treatment 2, 3.3 grams/day
[22] = Patient 5, month of treatment 3, 3.3 grams/day
[23] = five subjects, 3.3 grams/day for 12 weeks

2′-fucosyllactose [2′-FL]
Albumin [1, 3]: 3.6 g/dL | Ferritin [1, 3]: 548 ng/mL | Hg [1, 3]: 10.6 g/dL | Albumin [1, 4]: 3.7 g/dL | CRP [1, 4]: 0.7 mg/L | Ferritin [1, 4]: 546 ng/mL | Hg [1, 4]: 10.5 g/dL | Albumin [1, 5]: 3.8 g/dL | CRP [1, 5]: 0.5 mg/L | Ferritin [1, 5]: 503 ng/mL | Hg [1, 5]: 11.2 g/dL | Albumin [1, 6]: 3.5 g/dL | CRP [1, 6]: 0.3 mg/L | Ferritin [1, 6]: 364 ng/mL | Hg [1, 6]: 10.7 g/dL | Albumin [1, 7]: 4.2 g/dL | Ferritin [1, 7]: 1250 ng/mL | Hg [1, 7]: 11.2 g/dL | Albumin [1, 8]: 4.3 g/dL | CRP [1, 8]: 6.2 mg/L | Ferritin [1, 8]: 1188 ng/mL | Hg [1, 8]: 11.3 g/dL | Albumin [1, 9]: 4.2 g/dL | CRP [1, 9]: 4.3 mg/L | Ferritin [1, 9]: 1000 ng/mL | Hg [1, 9]: 10.6 g/dL | Albumin [1, 10]: 4.2 g/dL | CRP [1, 10]: 2.3 mg/L | Ferritin [1, 10]: 899 ng/mL | Hg [1, 10]: 10.2 g/dL | Albumin [1, 11]: 3.9 g/dL | Ferritin [1, 11]: 1243 ng/mL | Hg [1, 11]: 10.5 g/dL | Albumin [1, 12]: 4 g/dL | CRP [1, 12]: 19 mg/L | Ferritin [1, 12]: 1135 ng/mL | Hg [1, 12]: 11.3 g/dL | Albumin [1, 13]: 3.9 g/dL | CRP [1, 13]: 1.9 mg/L | Ferritin [1, 13]: 827 ng/mL | Hg [1, 13]: 10.9 g/dL | Albumin [1, 14]: 4 g/dL | CRP [1, 14]: 1.6 mg/L | Ferritin [1, 14]: 907 ng/mL | Hg [1, 14]: 11.2 g/dL | Albumin [1, 15]: 3.9 g/dL | Ferritin [1, 15]: 1487 ng/mL | Hg [1, 15]: 10.8 g/dL | Albumin [1, 16]: 3.9 g/dL | CRP [1, 16]: 2 mg/L | Ferritin [1, 16]: 1208 ng/mL | Hg [1, 16]: 10.5 g/dL | Albumin [1, 17]: 3.9 g/dL | CRP [1, 17]: 1.5 mg/L | Ferritin [1, 17]: 749 ng/mL | Hg [1, 17]: 11.3 g/dL | Albumin [1, 18]: 3.8 g/dL | CRP [1, 18]: 1.5 mg/L | Ferritin [1, 18]: 985 ng/mL | Hg [1, 18]: 11.4 g/dL | Albumin [1, 19]: 4.1 g/dL | Ferritin [1, 19]: 580 ng/mL | Hg [1, 19]: 12.2 g/dL | Albumin [1, 20]: 4.1 g/dL | CRP [1, 20]: 27.5 mg/L | Ferritin [1, 20]: 431 ng/mL | Hg [1, 20]: 12.6 g/dL | Albumin [1, 21]: 3.9 g/dL | CRP [1, 21]: 28 mg/L | Ferritin [1, 21]: 313 ng/mL | Hg [1, 21]: 12.2 g/dL | Albumin [1, 22]: 3.8 g/dL | CRP [1, 22]: 12.4 mg/L | Ferritin [1, 22]: 332 ng/mL | Hg [1, 22]: 12 g/dL | anemia (hemoglobin), average [1, 23]: improvement or stabilization | nutrition (albumin), average [1, 23]: improvement or stabilization | serum inflammatory marker CRP (C-reactive protein), average [1, 23]: significant and persistent reduction | serum inflammatory marker ferritin, average [1, 23]: significant and persistent reduction | bowel movement consistency [2]: from hard stool to soft | bowel movement regularity (on average) [2]: from one bowel movement every other day to one bowel movement every day
